# Key:
# [1] = test system: SRS-A-induced constriction of the guinea pig ileum; assay: Guinea Pig Ileum, In Vitro (inhibition of SRS-A-induced constriction); assay type: cell-based; details: Cavia porcellus; SRS-A-induced constriction; in vitro; read-out: Guinea Pig Ileum, IC50
# Method: The guinea pig ileum bioassay system has been described by Orange and Austen, Adv. Immunol. […] A 1.5 cm segment is removed from animals weighing 300-400 g. and suspended in an organ bath containing 10 ml. of Tyrodes solution with 10^-6 M atropine sulfate and 10^-6 M pyrilamine maleate. […] The SRS-A utilized in this screen is obtained by challenging chopped lung fragments from actively sensitized guinea pigs with egg albumin, in vitro. A dose-response curve to SRS-A challenge is established for the ileum. […] The drug concentration which inhibits, by 50%, the SRS-A-induced constriction of the guinea pig ileum is determined.
# TXA2 synthase = molecular target: T1, TXA2 synthase (Homo sapiens, UniProt P24557); assay: Thromboxane Synthase Inhibition, In Vitro; assay type: biochemical; details: human platelet microsomes; for inhibition at 0.1 µM: at 10^-7 M
# T1 construct: using microsomal fractions from human platelets as enzyme source; from tissue; host or cells: human platelets, microsomal fraction
# T1 sequence (P24557 1-533): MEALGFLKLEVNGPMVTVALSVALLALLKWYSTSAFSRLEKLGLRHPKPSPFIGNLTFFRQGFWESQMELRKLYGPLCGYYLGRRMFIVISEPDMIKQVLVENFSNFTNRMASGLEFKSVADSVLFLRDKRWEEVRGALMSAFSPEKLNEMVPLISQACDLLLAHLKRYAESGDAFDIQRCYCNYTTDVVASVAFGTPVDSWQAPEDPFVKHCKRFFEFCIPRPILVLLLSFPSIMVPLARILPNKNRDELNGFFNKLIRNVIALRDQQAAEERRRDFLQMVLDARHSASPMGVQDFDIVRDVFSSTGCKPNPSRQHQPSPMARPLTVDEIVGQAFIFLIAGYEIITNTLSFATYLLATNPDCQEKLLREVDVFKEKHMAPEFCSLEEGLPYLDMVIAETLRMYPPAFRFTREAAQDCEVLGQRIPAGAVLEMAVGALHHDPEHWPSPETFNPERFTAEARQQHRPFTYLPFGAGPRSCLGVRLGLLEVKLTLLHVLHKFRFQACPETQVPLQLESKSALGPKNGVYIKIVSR
# Method: TXA2 synthase activity is measured by following the conversion of ^14 C-prostaglandin endoperoxide (PGH2) to ^14 C-thromboxane A2 (TXA2) using microsomal fractions from human platelets as enzyme source. In the aqueous incubation medium, the TXA2 decomposes rapidly into TXB2. The amount of TXA2 synthase is adjusted so that under the conditions of the assay approximately 80-90% of the substrate, PGH2, is converted to product in control tubes. To prepare ^14 C--PGH2, ^14 C--AA (50-60 mCi/mmole; Rose Chem.) is incubated with sheep seminal vesicular gland microsomes for 1.5 minutes at 37° C. and then the ^14 C--PGH2 is extracted with diethylether, purified on columns of Sephadex LH-20 or silicic acid, and stored in acetone at -70° C. Incubations are done as follows. Sufficient ^14 C--PGH2 to yield a final substrate concentration of 10 μM (30,000 cpm) is added to the incubation tubes and then the acetone is removed under nitrogen. The tubes are placed in an ice bath and then 215 μl of ice cold phosphate buffered saline, 10 μl of ethanol (control) or of test drug in ethanol, and 25 μl of the microsomal suspension are added with mixing in that order as rapidly as possible. The tubes are incubated at 22° C. for 2 minutes, the reaction is stopped and then the radioactive products and the uncoverted PGH2 are extracted and analyzed by thin layer chromatography. […] The amount of ^14 C--PGH2 converted to products was used as a measure of TXA2 synthase activity. Inhibitors were tested initially at a final concentration of 100 μM. Results obtained with representative compounds of the present invention in this assay are summarized hereafter in Table I.
# [2] = molecular target: T2, PAF receptor (dog platelets) (Canis lupus familiaris, UniProt A0A8I3NSH0); assay: PAF Radioreceptor Binding Assay; details: 3H-PAF
# T2 construct: followed by 2×10^7 dog platelets; from tissue; host or cells: dog platelets, washed, intact
# T2 sequence (A0A8I3NSH0 1-343): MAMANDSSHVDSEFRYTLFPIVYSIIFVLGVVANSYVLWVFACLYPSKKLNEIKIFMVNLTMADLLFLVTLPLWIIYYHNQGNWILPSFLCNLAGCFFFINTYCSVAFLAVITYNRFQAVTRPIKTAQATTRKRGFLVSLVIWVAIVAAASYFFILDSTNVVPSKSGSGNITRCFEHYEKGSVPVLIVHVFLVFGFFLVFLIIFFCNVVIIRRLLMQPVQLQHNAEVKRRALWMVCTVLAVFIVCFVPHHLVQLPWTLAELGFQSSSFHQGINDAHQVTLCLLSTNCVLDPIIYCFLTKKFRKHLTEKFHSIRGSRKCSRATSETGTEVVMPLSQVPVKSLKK
# Method: Platelet rich plasma is prepared by centrifugation of citrate-treated dog blood. Acidification to pH 6.5 with 0.15M citric acid and centrifugation for 10 minutes at 1000 g yields a platelet pellet which is then washed by resuspension in EDTA-Phosphate Buffered Saline (PBS) and recentrifuged. The washed platelet preparation is adjusted to 2×10^7 platelets/50 μl in 0.1% BSA-PBS.
# To a […] microfuge tube containing 50 μl silicone oil (specific gravity 1.023) is added buffer, PAF standard or analog, or an extract to bring the aqueous volume to 150 μl. 50 μl of ^3 H-PAF (10,000 cpm, 45 Ci/mM) is added followed by 2×10^7 dog platelets. After mixing, incubating for 10 minutes at room temperature, and centrifuging for 1 minute in a Beckman Microfuge B (8000 g), the pellet is removed by clipping off the tip of the tube, solubilizing the platelets with 200 μl of 50% methanol, and counting in 10 ml of Aquasol. […] Results obtained with representative compounds of the present invention in this assay are summarized hereinafter in Table I.
IC50 [1],IC50 (TXA2 synthase; read-out: TXA2 Synthase Inhibition (concentration bound printed in the % column)),IC50 [2],inhibition at 0.1 µM (TXA2 synthase),SMILES
> 10000 nM,> 10000 nM,> 1000 nM,–,CC(C)c1ccc2ncn(/C=C/C(=O)NCCCCc3ccccn3)c(=O)c2c1 [drawing 17]
5000 nM,–,> 1000 nM,72%,CC(C)c1ccc2ncn(/C=C/C(=O)NCCCCn3ccnc3)c(=O)c2c1 [drawing 15]
1000 nM,–,650 nM,48%,CC(C)c1ccc2ncn(/C=C/C(=O)NCCCCc3cccnc3)c(=O)c2c1 [drawing 12]
